Data as given in patent US8022099B2, “N-benzyl pyrrolidine derivatives” (Hoffmann-La Roche Inc., priority 2008, dated 2011).

Target: T1, human NK3 receptor (Homo sapiens, UniProt P29371)
T1 construct: expressed in transfected cells; host or cells: HEK293 cells (transient expression), membrane preparation
T1 sequence (P29371 1-465): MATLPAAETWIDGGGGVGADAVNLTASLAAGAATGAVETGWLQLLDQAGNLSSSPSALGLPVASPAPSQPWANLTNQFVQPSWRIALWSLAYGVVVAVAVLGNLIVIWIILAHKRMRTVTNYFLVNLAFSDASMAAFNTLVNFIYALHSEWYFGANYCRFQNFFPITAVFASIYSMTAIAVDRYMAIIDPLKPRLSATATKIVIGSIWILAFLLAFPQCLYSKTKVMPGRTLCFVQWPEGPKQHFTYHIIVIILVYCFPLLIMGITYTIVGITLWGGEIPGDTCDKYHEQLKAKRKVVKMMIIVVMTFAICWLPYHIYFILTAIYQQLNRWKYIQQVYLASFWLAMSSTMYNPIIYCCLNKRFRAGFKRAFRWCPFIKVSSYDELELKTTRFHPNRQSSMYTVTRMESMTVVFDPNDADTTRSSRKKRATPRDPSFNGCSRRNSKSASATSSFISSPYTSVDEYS
Assay: [3H]SR142801 competition binding assay
Conditions: hNK3 receptor binding, [3H]SR142801, membranes from HEK293 cells transiently expressing recombinant human NK3 receptor
Experimental: [^3H]SR142801 Competition Binding Assay
hNK3 receptor binding experiment were performed using [^3H]SR142801 (Catalog No. TRK1035, specific activity: 74.0 Ci/mmol, Amersham, GE Healthcare UK limited, Buckinghamshire, UK) and membrane isolated from HEK293 cells transiently expressing recombinant human NK3 receptor. After thawing, the membrane homogenates were centrifuged at 48,000×g for 10 min at 4° C., the pellets were resuspended in the 50 mM Tris-HCl, 4 mM MnCl2, 1 μM phosphoramidon, 0.1% BSA binding buffer at pH 7.4 to a final assay concentration of 5 μg protein/well. For inhibition experiments, membranes were incubated with [^3H]SR142801 at a concentration equal to KD value of radioligand and 10 concentrations of the inhibitory compound (0.0003-10 μM) (in a total reaction volume of 500 μl) for 75 min at room temperature (RT). At the end of the incubation, membranes were filtered onto unitfilter (96-well white microplate with bonded GF/C filter preincubated 1 h in 0.3% PEI+0.3% BSA, Packard BioScience, Meriden, Conn.) with a Filtermate 196 harvester (Packard BioScience) and washed 4 times with ice-cold 50 mM Tris-HCl, pH 7.4 buffer. Nonspecific binding was measured in the presence of 10 μM SB222200 for both radioligands. The radioactivity on the filter was counted (5 min) on a Packard Top-count microplate scintillation counter with quenching correction after addition of 45 μl of microscint 40 (Canberra Packard S. A., Zürich, Switzerland) and shaking for 1 h. Inhibition curves were fitted according to the Hill equation: y=100/(1+(x/IC50)^nH), where nH=slope factor using Excel-fit 4 software (Microsoft). IC50 values were derived from the inhibition curve and the affinity constant (Ki) values were calculated using the Cheng-Prussoff equation Ki=IC50/(1+[L]/KD) where [L] is the concentration of radioligand and KD is its dissociation constant at the receptor, derived from the saturation isotherm. All experiments were performed in duplicate and the mean±standard error (SEM) of the individual Ki values was calculated.

| Ki [nM] | Compound |
| --- | --- |
| 1.8 | CN(Cc1ccc(C(F)(F)F)c(F)c1)[C@H]1CN(C(=O)N2CCN(S(=O)(=O)N(C)C)CC2)C[C@@H]1c1ccc(Cl)c(Cl)c1 (racemic) [Example 76, 4-{(3SR,4RS)-3-(3,4-Dichloro-phenyl)-4-[(3-fluoro-4-trifluoromethyl-benzyl)-methyl-amino]-pyrrolidine-1-carbonyl}-piperazine-1-sulfonic acid dimethylamide] |
| 26.8 | COc1cccc(N2CCN(C(=O)N3C[C@H](c4ccc(Cl)c(Cl)c4)[C@@H](N(C)Cc4ccc(C(F)(F)F)c(F)c4)C3)CC2)n1 (racemic) [Example 77, {(3SR,4RS)-3-(3,4-Dichloro-phenyl)-4-[(3-fluoro-4-trifluoromethyl-benzyl)-methyl-amino]-pyrrolidin-1-yl}-[4-(6-methoxy-pyridin-2-yl)-piperazin-1-yl]-methanone] |
| 4.8 | CCN(CC)C(=O)N1CCN(C(=O)N2C[C@H](c3ccc(Cl)c(Cl)c3)[C@@H](N(C)Cc3ccc(C(F)(F)F)c(F)c3)C2)CC1 (racemic) [Example 78, 4-{(3SR,4RS)-3-(3,4-Dichloro-phenyl)-4-[(3-fluoro-4-trifluoromethyl-benzyl)-methyl-amino]-pyrrolidine-1-carbonyl}-piperazine-1-carboxylic acid diethylamide] |
| 1.9 | CN(Cc1ccc(C(F)(F)F)c(F)c1)[C@H]1CN(C(=O)N2CCN(CCC#N)CC2)C[C@@H]1c1ccc(Cl)c(Cl)c1 (racemic) [Example 79, 3-(4-{(3SR,4RS)-3-(3,4-Dichloro-phenyl)-4-[(3-fluoro-4-trifluoromethyl-benzyl)-methyl-amino]-pyrrolidine-1-carbonyl}-piperazin-1-yl)-propionitrile] |
| 20.8 | CN(Cc1ccc(C(F)(F)F)c(F)c1)[C@H]1CN(C(=O)N2CCC(O)(c3ccncc3)CC2)C[C@@H]1c1ccc(Cl)c(Cl)c1 (racemic) [Example 80, {(3SR,4RS)-3-(3,4-Dichloro-phenyl)-4-[(3-fluoro-4-trifluoromethyl-benzyl)-methyl-amino]-pyrrolidin-1-yl}-(4-hydroxy-3,4,5,6-tetrahydro-2H-[4,4′]bipyridinyl-1-yl)-methanone] |
| 14.6 | CN(Cc1ccc(C(F)(F)F)c(F)c1)[C@H]1CN(C(=O)N2CCN(S(C)(=O)=O)CC2)C[C@@H]1c1ccc(Cl)c(F)c1 (racemic) [Example 81, {(3SR,4RS)-3-(4-Chloro-3-fluoro-phenyl)-4-[(3-fluoro-4-trifluoromethyl-benzyl)-methyl-amino]-pyrrolidin-1-yl}-(4-methanesulfonyl-piperazin-1-yl)-methanone] |
| 39.7 | CN(Cc1ccc(C(F)(F)F)c(F)c1)[C@H]1CN(C(=O)N2CCCN(S(C)(=O)=O)CC2)C[C@@H]1c1ccc(Cl)c(F)c1 (racemic) [Example 82, {(3SR,4RS)-3-(4-Chloro-3-fluoro-phenyl)-4-[(3-fluoro-4-trifluoromethyl-benzyl)-methyl-amino]-pyrrolidin-1-yl}-(4-methanesulfonyl-[1,4]diazepan-1-yl)-methanone] |
| 6 | CN(Cc1ccc(C(F)(F)F)cc1)[C@H]1CN(C(=O)N2CCN(S(C)(=O)=O)CC2)C[C@@H]1c1ccc(Cl)c(Cl)c1 (racemic) [Example 83, {(3SR,4RS)-3-(3,4-Dichloro-phenyl)-4-[methyl-(4-trifluoromethyl-benzyl)-amino]-pyrrolidin-1-yl}-(4-methanesulfonyl-piperazin-1-yl)-methanone] |
| 15.5 | CN(Cc1ccc(C(F)(F)F)cc1)[C@H]1CN(C(=O)CCCCN2CCOCC2)C[C@@H]1c1ccc(Cl)c(Cl)c1 (racemic) [Example 84, 1-{(3SR,4RS)-3-(3,4-Dichloro-phenyl)-4-[methyl-(4-trifluoromethyl-benzyl)-amino]-pyrrolidin-1-yl}-5-morpholin-4-yl-pentan-1-one] |
| 97.6 | CNCCCCC(=O)N1C[C@H](c2ccc(Cl)c(Cl)c2)[C@@H](N(C)Cc2ccc(C(F)(F)F)c(F)c2)C1 (racemic) [Example 86, 1-{(3SR,4RS)-3-(3,4-Dichloro-phenyl)-4-[(3-fluoro-4-trifluoromethyl-benzyl)-methyl-amino]pyrrolidin-1-yl}-5-methylamino-pentan-1-one] |
| 51.2 | CN(C)CCCCC(=O)N1C[C@H](c2ccc(Cl)c(Cl)c2)[C@@H](N(C)Cc2ccc(C(F)(F)F)c(F)c2)C1 (racemic) [Example 87, 1-{(3SR,4RS)-3-(3,4-Dichloro-phenyl)-4-[(3-fluoro-4-trifluoromethyl-benzyl)-methyl-amino]-pyrrolidin-1-yl}-5-dimethylamino-pentan-1-one] |
| 24.7 | CN(Cc1ccc(C(F)(F)F)c(F)c1)[C@H]1CN(C(=O)CCCCN2CCNCC2)C[C@@H]1c1ccc(Cl)c(Cl)c1 (racemic) [Example 88, 1-{(3SR,4RS)-3-(3,4-Dichloro-phenyl)-4-[(3-fluoro-4-trifluoromethyl-benzyl)-methyl-amino]-pyrrolidin-1-yl}-5-piperazin-1-yl-pentan-1-one] |
| 26.9 | CN1CCN(CCCCC(=O)N2C[C@H](c3ccc(Cl)c(Cl)c3)[C@@H](N(C)Cc3ccc(C(F)(F)F)c(F)c3)C2)CC1 (racemic) [Example 89, 1-{(3SR,4RS)-3-(3,4-Dichloro-phenyl)-4-[(3-fluoro-4-trifluoromethyl-benzyl)-methyl-amino]-pyrrolidin-1-yl}-5-(4-methyl-piperazin-1-yl)-pentan-1-one] |
| 8.6 | CN(Cc1ccc(C(F)(F)F)c(F)c1)[C@H]1CN(C(=O)CCCCN2CCN(S(=O)(=O)N(C)C)CC2)C[C@@H]1c1ccc(Cl)c(Cl)c1 (racemic) [Example 90, 4-(5-{(3SR,4RS)-3-(3,4-Dichloro-phenyl)-4-[(3-fluoro-4-trifluoromethyl-benzyl)-methyl-amino]-pyrrolidin-1-yl}-5-oxo-pentyl)-piperazine-1-sulfonic acid dimethylamide] |
| 57.2 | CN(Cc1ccc(C(F)(F)F)c(F)c1)[C@H]1CN(C(=O)CCCCn2ccnc2)C[C@@H]1c1ccc(Cl)c(Cl)c1 (racemic) [Example 91, 1-{(3SR,4RS)-3-(3,4-Dichloro-phenyl)-4-[(3-fluoro-4-trifluoromethyl-benzyl)-methyl-amino]-pyrrolidin-1-yl}-5-imidazol-1-yl-pentan-1-one] |
| 46.6 | CN(Cc1ccc(C(F)(F)F)c(F)c1)[C@H]1CN(C(=O)CCCCN2CCCC2)C[C@@H]1c1ccc(Cl)c(Cl)c1 (racemic) [Example 92, 1-{(3SR,4RS)-3-(3,4-Dichloro-phenyl)-4-[(3-fluoro-4-trifluoromethyl-benzyl)-methyl-amino]-pyrrolidin-1-yl}-5-pyrrolidin-1-yl-pentan-1-one] |
| 24.3 | CN(Cc1ccc(C(F)(F)F)c(F)c1)[C@H]1CN(C(=O)CCCCC(=O)c2ccccn2)C[C@@H]1c1ccc(Cl)c(Cl)c1 (racemic) [Example 95, 1-{(3SR,4RS)-3-(3,4-Dichloro-phenyl)-4-[(3-fluoro-4-trifluoromethyl-benzyl)-methyl-amino]-pyrrolidin-1-yl}-6-pyridin-2-yl-hexane-1,6-dione] |
| 52.7 | CN(Cc1ccc(C(F)(F)F)c(F)c1)[C@H]1CN(C(=O)CCCCC(N)=O)C[C@@H]1c1ccc(Cl)c(Cl)c1 (racemic) [Example 98, 6-{(3SR,4RS)-3-(3,4-Dichloro-phenyl)-4-[(3-fluoro-4-trifluoromethyl-benzyl)-methyl-amino]-pyrrolidin-1-yl}-6-oxo-hexanoic acid amide] |
| 70.8 | CN(Cc1ccc(C(F)(F)F)c(F)c1)[C@H]1CN(C(=O)CCCCC#N)C[C@@H]1c1ccc(Cl)c(Cl)c1 (racemic) [Example 102, 6-{(3SR,4RS)-3-(3,4-Dichloro-phenyl)-4-[(3-fluoro-4-trifluoromethyl-benzyl)-methyl-amino]-pyrrolidin-1-yl}-6-oxo-hexanenitrile] |
| 62.2 | CC(=O)NC1CCN(CCCCC(=O)N2C[C@H](c3ccc(Cl)c(Cl)c3)[C@@H](N(C)Cc3ccc(C(F)(F)F)c(F)c3)C2)CC1 (racemic) [Example 105, N-[1-(5-{(3SR,4RS)-3-(3,4-Dichloro-phenyl)-4-[(3-fluoro-4-trifluoromethyl-benzyl)-methyl-amino]-pyrrolidin-1-yl}-5-oxo-pentyl)-piperidin-4-yl]-acetamide] |
